Laboratory results: patent US20260209218A1, “3-PHENYLQUINAZOLINONES AS NOVEL ANTI-CANCER THERAPY” (HELMHOLTZ ZENTRUM MÜNCHEN - DEUTSCHES FORSCHUNGSZENTRUM FÜR …, priority 2022, published 2026)

Tests used:
[1] = biological target: T1, hFSP1 (Homo sapiens, UniProt Q9BRQ8); experiment: Dose-response of screening hits, cell survival by Aquabluer in hFSP1 GPX4 KO cells; type: cell-based; conditions: FSP1 overexpressing cells lacking GPX4
T1 construct: expressed in transfected cells; host or cells: Gpx4 KO isogenic fibroblasts (Pfa1, mouse) overexpressing hFSP1
T1 sequence (Q9BRQ8 1-373): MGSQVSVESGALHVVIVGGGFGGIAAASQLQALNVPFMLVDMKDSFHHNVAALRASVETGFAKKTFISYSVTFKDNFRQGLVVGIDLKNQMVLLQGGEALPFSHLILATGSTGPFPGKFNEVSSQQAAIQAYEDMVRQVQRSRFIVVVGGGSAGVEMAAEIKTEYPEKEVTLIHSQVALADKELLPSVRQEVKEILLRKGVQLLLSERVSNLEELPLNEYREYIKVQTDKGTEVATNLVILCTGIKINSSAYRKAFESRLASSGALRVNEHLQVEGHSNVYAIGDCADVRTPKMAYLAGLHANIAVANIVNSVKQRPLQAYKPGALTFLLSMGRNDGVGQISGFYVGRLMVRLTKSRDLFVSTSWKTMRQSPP
Procedure: To identify new small molecule inhibitors that induce ferroptosis in FSP1 overexpressing cells lacking GPX4, hFSP1 GPX4 KO as well as FSP1 GPX4 wild type (WT) isogenic fibroblasts were screened using a subtractive high throughput screening (HTS) approach. As such, both cell lines were plated in parallel and screened against HMGU libraries at a fixed concentration of 10 μM. Cell survival was evaluated using the LIVE/DEAD assay Aquabluer. The percentage (%) of viable cells was determined for both wild type (WT) and knockout (KO) cell lines. Hits were considered as compounds that induce ferroptosis in KO but not in WT cells. Subsequently, positive hits were assayed in a dose-response manner to establish EC50 values of respective compounds (see Table 2).

[2] = system: HT-1080 wild type cells; experiment: Cell viability assay (AquaBluer), ferroptosis induction; type: cell-based, human; conditions: FIG. 1B; rescued by liproxstatin-1
Procedure: (§1) Cells were seeded on 96-well plates and cultured overnight. On the next day, the medium was changed to medium containing following compounds: RSL3, ML210, erastin, FIN56, FINO2, BSO, iFSP1, icFSP1, Lip-1, DFO, Fer-1, zVAD, Nec-1s, MCC950, olaparib, STS, TNFa, Smac mimic or nigericin at the indicated concentrations. For TAM and Dox treatment, cells were seeded with compounds at the same time. Cell viability was determined 1 h (for nigericin), 24-48 h (for RSL3, ML210, erastin, FIN56, FINO2, iFSP1, icFSP1, STS, TNFa, Smac mimic, and zVAD) or 72 h (for BSO, icFSP1, TAM, and Dox) after the treatment using AquaBluer (MultiTarget Pharmaceuticals, Cat #6015) as an indicator of viable cells according to the manufacturer's protocols. For apoptosis induction, HT-1080 cells were incubated with different concentrations of STS for 24 h. For necroptosis induction, HT-29 cells were incubated with different concentrations of TNFa with Smac mimic (400 nM), and zVAD (30 μM) for 24 h. […] As readout fluorescence was measured at Ex/Em=540/590 nm using a SpectraMax M5 microplate reader with SoftMax Pro v7 (Molecular devices) after 4 hours of incubation in normal cell culture conditions. The relative cell viability (%) was calculated as follows: (fluorescence (FL) of samples−background)/(FL of appropriate control samples−background)×100.

[3] = system: Pfa1 Gpx4^KO cells overexpressing FSP1; experiment: as above; type: cell-based; conditions: FIG. 1A; rescued by liproxstatin-1
Procedure: as §1

[4] = Microsomal stability, mouse liver microsomes; type: in vitro ADME; conditions: Balb/c, pH 7.4, 0.42 mg microsomal protein per ml, 37° C., five time points over 40 minutes
Procedure: (§2) The objective of this study was to determine metabolic stability of 4 test articles and reference compounds in human and mouse liver microsomes at five time points over 40 minutes using HPLC-MS. Metabolic stability is defined as the percentage of parent compound lost over time in the presence of a metabolically active test system.
(§3) Microsomal incubations were carried out in 96-well plates in 5 aliquots of 30 μL each (one for each time point). Liver microsomal incubation medium comprised of phosphate buffer (100 mM, pH 7.4), MgCl2 (3.3 mM), NADPH (3 mM), glucose-6-phosphate (5.3 mM), glucose-6-phosphate dehydrogenase (0.67 units/ml) with 0.42 mg of liver microsomal protein per ml. In the control reactions, the NADPH-cofactor system was substituted with phosphate buffer. Test compounds (2 μM, final solvent concentration 1.6%) were incubated with microsomes at 37° C., shaking at 100 rpm. Five time points over 40 minutes were analyzed. The reactions were stopped by adding 5 volumes of acetonitrile with internal standard to incubation aliquots, followed by protein sedimentation by centrifuging at 5500 rpm for 5 minutes. Each reaction was performed in duplicates. Supernatants were analyzed using the HPLC system coupled with a tandem mass spectrometer.
(§4) The elimination constant (kel), half-life (t1,2), and intrinsic clearance (Clint) were determined in a plot of In(AUC) versus time, using linear regression analysis:^1

[5] = Microsomal stability, human liver microsomes; type: in vitro ADME; conditions: pH 7.4, 0.42 mg microsomal protein per ml, 37° C., five time points over 40 minutes
Procedure: as §2, §3, §4

[6] = Pharmacokinetics after a single intraperitoneal dose, plasma by LC-MS/MS; type: in vivo, male Balb/cAnN mice; conditions: mouse, IP, 10 mg/kg
Procedure: The purpose of this study was to determine the pharmacokinetic characteristics of compound 13 in male Balb/cAnN mice following intraperitoneal (IP) administration. Levels of the test compound were determined by LC-MS/MS in the blood plasma samples over time after a single dose.
Study design, animal selection, handling and treatment were all in accordance with the Enamine PK study protocols and Institutional Animal Care and Use Guidelines (BACUC approval number #HC-PK-10112023). Animal treatment and samples preparation were conducted by the Animal Laboratory personnel at Enamine/Bienta. Male Balb/cAnN mice (10 weeks old, body weight ranged from 19.6 g to 23.3 g and average body weight across all groups 21.0 g, SD=0.9 g) were used in this study. The animals were randomly assigned to the treatment groups before the pharmacokinetic study; all animals were fasted for 4 h before dosing. Six sampling time points (5, 15, 30, 60, 120, and 360 min) were set for this pharmacokinetic study. Each of the time point treatment group included 4 animals. There was also a control group of one vehicle-dosed animal. Dosing was done according to the treatment Schedules outlined in Table 5. Mice were injected IP with 2,2,2-tribromoethanol at the dose of 150 mg/kg prior to drawing the blood. Blood collection was performed from the orbital sinus in microtainers containing K3EDTA. Animals were sacrificed by cervical dislocation after the blood samples collection. Blood samples were centrifuged for 10 min at 3000 rpm. All samples were immediately processed, flash-frozen and stored at −70° C. until subsequent analysis.
Plasma samples (40 μl) were mixed with 200 μl of IS(90) solution. After mixing by pipetting and centrifuging for 4 min at 6000 rpm, 0.25 μl of each supernatant was injected into LC-MS/MS system.
Analyses of plasma samples were conducted by the Bioanalytical Laboratory personnel at Enamine/Bienta. The concentrations of 13 in samples were determined using high performance liquid chromatography/tandem mass spectrometry (HPLC-MS/MS). Shimadzu HPLC system comprised 2 isocratic pumps LC-10ADvp, an autosampler SIL-20AC, a sub-controller FCV-14AH and a degasser DGU-14A. Mass spectrometric analysis was performed using an API 3000 (triple-quadrupole) instrument from AB Sciex (Canada) with an electro-spray (ESI) interface. The data acquisition and system control were performed using Analyst 1.6.3 software from AB Sciex.
The concentrations of the test compound below the lower limit of quantitation (LLOQ=100 ng/ml) were designated as zero. The pharmacokinetic data analysis was performed using noncompartmental, bolus injection or extravascular input analysis models in WinNonlin 5.2 (PharSight). Data below LLOQ were presented as missing to improve the validity of T½ calculations.

Row | microsomal CLint at 2 μM [4] [µL/min/mg] | microsomal CLint at 2 μM [5] [µL/min/mg] | plasma concentration relative to the EC50 value ([6]; based on the total drug concentration) [fold] | Cmax ([6]; male, Balb/cAnN, plasma) [ng/mL] | Tmax ([6]; male, Balb/cAnN, plasma) [h] | AUC(0-t) ([6]; male, Balb/cAnN, plasma, read-out: AUC0→t = 60 min (AUClast) (converted)) [ng·h/mL] | AUC(0-inf) ([6]; male, Balb/cAnN, plasma, read-out: AUC0→∞ (AUCINF_obs) (converted)) [ng·h/mL] | MRT inf ([6]; male, Balb/cAnN, plasma, read-out: MRT (MRTinf) (converted)) [h] | MRT last ([6]; male, Balb/cAnN, plasma, read-out: MRT (MRTlast) (converted)) [h] | half-life ([6]; male, Balb/cAnN, plasma, read-out: T1/2 (HL_Lambda_z)) [h] | Kel (Lambda_z) ([6]; plasma) [min⁻¹] | Compound | EC50 [1] [µM] | ferroptosis induction (cell death, AquaBluer) [2] | ferroptosis induction (cell death, AquaBluer) [3]
1 |  |  |  |  |  |  |  |  |  |  |  | COc1cc(CC(=O)Nc2ccc(-n3c(C)nc4ccccc4c3=O)cc2)cc(OC)c1OC [Compound 1] | < 1 | efficiently induces ferroptosis | efficiently induces ferroptosis
2 | 6 | 12 | 10 | 10200 | 0.25 | 30000 | 33500 | 2.52 | 1.78 | 1.9 | 0.00608 | Cc1nc2ccccc2c(=O)n1-c1ccc(NC(=O)Cc2ccccc2)cc1 [Compound 13, N-(4-(2-methyl-4-oxoquinazolin-3(4H)-yl)phenyl)-2-phenylacetamide] | > 1 |  | 
3 | 7 | 7 |  |  |  |  |  |  |  |  |  | Cc1nc2cc(F)c(F)cc2c(=O)n1-c1ccc(NC(=O)Cc2ccc(C(F)(F)F)cc2)cc1 [Compound 74] | < 1 |  | 
4 | 15 | 4 |  |  |  |  |  |  |  |  |  | Cc1nc2cc(F)c(F)cc2c(=O)n1-c1ccc(NC(=O)Cc2ccccc2)cc1 [Compound 82] | < 1 |  | 
